Results taken from article PMC12054466 (RSC Advances, 2025).
Like-named read-outs stand apart in the source and are kept apart here.

Experiments:
[1] = format: binding
[2] = rabbits, single oral dose 10 mg kg^−1, n = 5, mean; unit as in Table 4

λz [2]: 0.06 h
SMILES: CC(C)(C(=O)O)c1ccc(C(O)CCCN2CCC(C(O)(c3ccccc3)c3ccccc3)CC2)cc1 (stereo not shown) [fexofenadine, Fexofenadine]
Ksv (Stern–Volmer quenching constant) ([1]; 298 K (25 °C)): 1.36 10^6 M^−1
Ksv (Stern–Volmer quenching constant) ([1]; 303 K): 1.09 10^6 M^−1
Ksv (Stern–Volmer quenching constant) ([1]; 308 K (35 °C)): 0.95 10^6 M^−1
